Data published in patent US20040180031A1, “Skin conditioner” (Kabushiki Kaisha Soken, priority 1999, published 2004).

Assays:
[1] = test system: normal human skin fibroblasts; assay: Collagen production recovery test on damaged fibroblasts (Test Example 1); assay type: cell-based; details: 3H-proline uptake into collagen; sample final concentration 3.3%; 24 hours at 37° C.; hypoxanthine/xanthine oxidase damage; FIG. 1
Description: A collagen production recovery test was conducted on damaged fibroblasts. Six to eight subcultures of normal human skin fibroblasts (Physicochemical Research Institute, Cell Development Bank NBIRGB) were used in the test. […] Measurement of collagen production ability of a confluent in the steady state was performed according to the method of Webster et al. based on the uptake of ^3H-proline into the produced collagen. […] Since proline is a main component of the amino acids that compose collagen, fibroblasts are cultured in a medium containing ^3H-proline, and the ^3H activity taken up into collagen in the cells is measured. Units are in d.p.m., and represent the number of […] of radioactivity released per minute.

[2] = test system: persons with atopic skin; assay: 2-hour moisture retention duration test on atopic skin (Test Example 9); assay type: in vivo, human
Description: A 2-hour moisture retention duration test was performed on atopic skin.

[3] = test system: volunteers with chapped skin; assay: Moisture retention duration test on persons with chapped skin, ammonium samples (Test Example 17); assay type: in vivo, human
Description: A moisture retention duration test was conducted on persons with chapped skin.
Test Method: Same as Test Example 2
Measurement Method: Same as Text Example 2
Test Apparatus: Same as Test Example 2

[4] = test system: persons with atopic skin; assay: Moisture retention ability test on atopic skin, ammonium samples (Test Example 18); assay type: in vivo, human; details: FIG. 54
Description: A moisture retention ability test was performed on atopic skin. Test Method: Same as Test Example 3 Measurement Method: Same as Text Example 3 Test Apparatus: Same as Test Example 3

SMILES	collagen production ability of fibroblasts damaged by active oxygen [1]	moisture retention duration / continuation of moisture retention [2]	moisture retention duration [3]	moisture retention ability [4]
N=C(N)NCCC[C@H](N)C(=O)O [L-arginine]	significantly improved	observed		
N [ammonium ions]			can be observed	can be observed
NCCO [ethanolamine]	significantly improved	observed		
